Results from the supplement of paper PMC10307832.

Experiments:
Experiment in all cases: relative viability (nuclei count vs DMSO), 5 days (fraction); higher = more cells survive
NCI-H2347 = system: NCI-H2347
How it was run: (§1)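 Cells from lung cancer lines were seeded into 1536-well plates and, one day later, dosed by pin tool. Treatments were either a single drug or a fixed dose of an anchor drug with five library-drug doses (not always all listed) in √10 steps. After 5 days, nuclei were stained in a one-step fixation (final 0.05% Triton X-100, 1% formaldehyde, 1 ug/ml Hoechst) and counted on 4× images, and relative viability is the treated-to-vehicle nuclei ratio, as the median of duplicate plates.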

LU99A = system: LU99A
How it was run: as §1

H3255 = system: H3255
How it was run: as §1

201T = system: 201T
How it was run: as §1

HCC-44 = system: HCC-44
How it was run: as §1

LK-2 = system: LK-2
How it was run: as §1

SW 1573 = system: SW 1573
How it was run: as §1

A-427 = system: A-427
How it was run: as §1

NCI-H23 = system: NCI-H23
How it was run: as §1

NCI-H460 = system: NCI-H460
How it was run: as §1

NCI-H650 = system: NCI-H650
How it was run: as §1

PC-3 [JPC-3] = system: PC-3 [JPC-3]
How it was run: as §1

COR-L23 = system: COR-L23
How it was run: as §1

SW 900 = system: SW 900
How it was run: as §1

NCI-H727 = system: NCI-H727
How it was run: as §1

NCI-H838 = system: NCI-H838
How it was run: as §1

NCI-H1793 = system: NCI-H1793
How it was run: as §1

PC-14 = system: PC-14
How it was run: as §1

NCI-H1944 = system: NCI-H1944
How it was run: as §1

LCLC-103H = system: LCLC-103H
How it was run: as §1

LCLC-97TM1 = system: LCLC-97TM1
How it was run: as §1

NCI-H1650 = system: NCI-H1650
How it was run: as §1

NC(=O)Nc1cc(-c2cccc(F)c2)sc1C(=O)N[C@H]1CCCNC1 [AZD7762] + CC(=O)c1c(C)c2cnc(Nc3ccc(N4CCNCC4)cn3)nc2n(C2CCCC2)c1=O [Palbociclib] (partner 0.5 µM) was tested, and the relative viability (NCI-H2347; first compound 0.01 µM) was 0.542, the relative viability (NCI-H2347; first compound 0.03162 µM) was 0.469 and the relative viability (NCI-H2347; first compound 0.1 µM) was 0.479. For the same compound, the relative viability (NCI-H2347; first compound 0.3162 µM) was 0.509, the relative viability (NCI-H2347; first compound 1 µM) was 0.461 and the relative viability (LU99A; first compound 0.01 µM) was 0.469. The relative viability (LU99A; first compound 0.03162 µM) was 0.427, the relative viability (LU99A; first compound 0.1 µM) was 0.438 and the relative viability (LU99A; first compound 0.3162 µM) was 0.408. The relative viability (LU99A; first compound 1 µM) was 0.354, the relative viability (H3255; first compound 0.01 µM) was 0.329 and the relative viability (H3255; first compound 0.03162 µM) was 0.312. For the same compound, the relative viability (H3255; first compound 0.1 µM) was 0.362, the relative viability (H3255; first compound 0.3162 µM) was 0.366 and the relative viability (H3255; first compound 1 µM) was 0.35. For the same compound, the relative viability (201T; first compound 0.01 µM) was 0.361, the relative viability (201T; first compound 0.03162 µM) was 0.348 and the relative viability (201T; first compound 0.1 µM) was 0.361. The relative viability (201T; first compound 0.3162 µM) was 0.386, the relative viability (201T; first compound 1 µM) was 0.402 and the relative viability (HCC-44; first compound 0.01 µM) was 1.02. For the same compound, the relative viability (HCC-44; first compound 0.03162 µM) was 0.923, the relative viability (HCC-44; first compound 0.1 µM) was 0.965 and the relative viability (HCC-44; first compound 0.3162 µM) was 0.93. The relative viability (HCC-44; first compound 1 µM) was 1.04, the relative viability (LK-2; first compound 0.01 µM) was 0.6 and the relative viability (LK-2; first compound 0.03162 µM) was 0.779. For the same compound, the relative viability (LK-2; first compound 0.1 µM) was 0.742, the relative viability (LK-2; first compound 0.3162 µM) was 0.612 and the relative viability (LK-2; first compound 1 µM) was 0.572. It also gave a relative viability (SW 1573; first compound 0.01 µM) of 0.424, a relative viability (SW 1573; first compound 0.03162 µM) of 0.453 and a relative viability (SW 1573; first compound 0.1 µM) of 0.466. It also gave a relative viability (SW 1573; first compound 0.3162 µM) of 0.377, a relative viability (SW 1573; first compound 1 µM) of 0.314 and a relative viability (A-427; first compound 0.01 µM) of 0.568. It also gave a relative viability (A-427; first compound 0.03162 µM) of 0.552, a relative viability (A-427; first compound 0.1 µM) of 0.595 and a relative viability (A-427; first compound 0.3162 µM) of 0.563. It also gave a relative viability (A-427; first compound 1 µM) of 0.334, a relative viability (NCI-H23; first compound 0.01 µM) of 0.58 and a relative viability (NCI-H23; first compound 0.03162 µM) of 0.629. For the same compound, the relative viability (NCI-H23; first compound 0.1 µM) was 0.73, the relative viability (NCI-H23; first compound 0.3162 µM) was 0.456 and the relative viability (NCI-H23; first compound 1 µM) was 0.281. The relative viability (NCI-H460; first compound 0.01 µM) was 0.254, the relative viability (NCI-H460; first compound 0.03162 µM) was 0.117 and the relative viability (NCI-H460; first compound 0.1 µM) was 0.0606. For the same compound, the relative viability (NCI-H460; first compound 0.3162 µM) was 0.0344, the relative viability (NCI-H460; first compound 1 µM) was 0.0224 and the relative viability (NCI-H650; first compound 0.01 µM) was 0.377. It also gave a relative viability (NCI-H650; first compound 0.03162 µM) of 0.374, a relative viability (NCI-H650; first compound 0.1 µM) of 0.403 and a relative viability (NCI-H650; first compound 0.3162 µM) of 0.38. For the same compound, the relative viability (NCI-H650; first compound 1 µM) was 0.382, the relative viability (PC-3 [JPC-3]; first compound 0.01 µM) was 0.558 and the relative viability (PC-3 [JPC-3]; first compound 0.03162 µM) was 0.541. The relative viability (PC-3 [JPC-3]; first compound 0.1 µM) was 0.537, the relative viability (PC-3 [JPC-3]; first compound 0.3162 µM) was 0.538 and the relative viability (PC-3 [JPC-3]; first compound 1 µM) was 0.504. For the same compound, the relative viability (COR-L23; first compound 0.01 µM) was 0.307, the relative viability (COR-L23; first compound 0.03162 µM) was 0.332 and the relative viability (COR-L23; first compound 0.1 µM) was 0.412. The relative viability (COR-L23; first compound 0.3162 µM) was 0.261, the relative viability (COR-L23; first compound 1 µM) was 0.117 and the relative viability (SW 900; first compound 0.01 µM) was 0.597. For the same compound, the relative viability (SW 900; first compound 0.03162 µM) was 0.688, the relative viability (SW 900; first compound 0.1 µM) was 0.583 and the relative viability (SW 900; first compound 0.3162 µM) was 0.444. The relative viability (SW 900; first compound 1 µM) was 0.504, the relative viability (NCI-H727; first compound 0.01 µM) was 0.693 and the relative viability (NCI-H727; first compound 0.03162 µM) was 0.669. The relative viability (NCI-H727; first compound 0.1 µM) was 0.669, the relative viability (NCI-H727; first compound 0.3162 µM) was 0.642 and the relative viability (NCI-H727; first compound 1 µM) was 0.559. The relative viability (NCI-H838; first compound 0.01 µM) was 0.27, the relative viability (NCI-H838; first compound 0.03162 µM) was 0.198 and the relative viability (NCI-H838; first compound 0.1 µM) was 0.243. For the same compound, the relative viability (NCI-H838; first compound 0.3162 µM) was 0.221, the relative viability (NCI-H838; first compound 1 µM) was 0.221 and the relative viability (NCI-H1793; first compound 0.01 µM) was 0.34. It also gave a relative viability (NCI-H1793; first compound 0.03162 µM) of 0.343, a relative viability (NCI-H1793; first compound 0.1 µM) of 0.373 and a relative viability (NCI-H1793; first compound 0.3162 µM) of 0.347. For the same compound, the relative viability (NCI-H1793; first compound 1 µM) was 0.225, the relative viability (PC-14; first compound 0.01 µM) was 0.601 and the relative viability (PC-14; first compound 0.03162 µM) was 0.469. For the same compound, the relative viability (PC-14; first compound 0.1 µM) was 0.326, the relative viability (PC-14; first compound 0.3162 µM) was 0.203 and the relative viability (PC-14; first compound 1 µM) was 0.0753. For the same compound, the relative viability (NCI-H1944; first compound 0.01 µM) was 0.383, the relative viability (NCI-H1944; first compound 0.03162 µM) was 0.382 and the relative viability (NCI-H1944; first compound 0.1 µM) was 0.409. For the same compound, the relative viability (NCI-H1944; first compound 0.3162 µM) was 0.402, the relative viability (NCI-H1944; first compound 1 µM) was 0.359 and the relative viability (LCLC-103H; first compound 0.01 µM) was 0.438. The relative viability (LCLC-103H; first compound 0.03162 µM) was 0.479, the relative viability (LCLC-103H; first compound 0.1 µM) was 0.639 and the relative viability (LCLC-103H; first compound 0.3162 µM) was 0.449. It also gave a relative viability (LCLC-103H; first compound 1 µM) of 0.544, a relative viability (LCLC-97TM1; first compound 0.01 µM) of 0.214 and a relative viability (LCLC-97TM1; first compound 0.03162 µM) of 0.221. The relative viability (LCLC-97TM1; first compound 0.1 µM) was 0.253, the relative viability (LCLC-97TM1; first compound 0.3162 µM) was 0.28 and the relative viability (LCLC-97TM1; first compound 1 µM) was 0.274. It also gave a relative viability (NCI-H1650; first compound 0.01 µM) of 0.367, a relative viability (NCI-H1650; first compound 0.03162 µM) of 0.397 and a relative viability (NCI-H1650; first compound 0.1 µM) of 0.344. The relative viability (NCI-H1650; first compound 0.3162 µM) was 0.314 and the relative viability (NCI-H1650; first compound 1 µM) was 0.176.
